Measured values taken from US8501977B2, “Platinum complex and pharmaceutical composition containing the same” (Unitech Co., Ltd., priority 2008, dated 2013).

Key:
[1] = tested on: HCT116 (human colon cancer cell); test: MTS cell proliferation test, HCT116 (Embodiment 8); type: cell-based
Description: (§1) Respectively, the S medicine test solution was prepared by dissolving the ((S,S,S) cis,cis-spiro[4,4]nonane-1,6-diamine)oxalatoplatinum(II) complex (compound 2; hereinafter, it is described as S medicine) into the dimethylsulfoxide (DMSO) with the concentration of 10 mg/ml and the R medicine test solution was prepared by dissolving the ((R,R,R)cis,cis-spiro[4,4]nonane-1,6-diamine) oxalatoplatinum(II) complex (compound 3; hereinafter, it is described as R medicine) into the dimethylsulfoxide (DMSO) with the concentration of 10 mg/ml.
(§2) The test was performed by using A549 (human lung cancer cell), LU65A (human lung cancer cell), RERF-LC-MA (human lung cancer cell), LU99 (human lung cancer cell), H460 (human lung cancer cell), HCT116 (human colon cancer cell), HT-29 (human colon cancer cell), MKN-45 (human gastric cancer cell), MKN-1 (human gastric cancer cell), U937 (human lymphoma cell), KP-1N (human pancreas cancer cell) and B2452 (human mesotheliama cell) as the cancer cell.
(§3) These cells were suspended in the each culture medium that the serum of 10% was added, and were dispensed in 96-well plate. And then, these were cultured in 5% CO2 at 37 degrees centigrade during a night. Next day, the S medicine test solution and the R medicine test solution were prepared in the culture medium to the various concentrations (5, 10, 20 μg/ml), and were dispensed into the plates that the cells were set preliminarily. And further, these were cultured in 5% CO2 at 37 degrees centigrade for three days.
(§4) The cell proliferation after the medicine addition was measured on the 3rd day from the 1st day after the medicine addition by the MTS method (kit for cell proliferation test manufactured by Promega Company).
(§5) The inhibition rate (%) of the cell proliferation was obtained from the measured MTS value by the following formula. Inhibition rate(%)=(1-MTS value of medicine addition group/MTS value of medicine non-addition group)×100
(§6) Because the value which was obtained by the above-mentioned formula represents the inhibition rate of the cell proliferation, the higher the numerical value is, the higher the medicine effect is. It is desired that the one whose value is 50% or more has the medicine effect.

[2] = tested on: KP-1N (human pancreas cancer cell); test: MTS cell proliferation test, KP-1N (Embodiment 8); type: cell-based
Description: as §1, §2, §3, §4, §5, §6

[3] = tested on: MKN-45 (human gastric cancer cell); test: MTS cell proliferation test, MKN-45 (Embodiment 8); type: cell-based
Description: as §1, §2, §3, §4, §5, §6

[4] = tested on: HT-29 (human colon cancer cell); test: MTS cell proliferation test, HT-29 (Embodiment 8); type: cell-based
Description: as §1, §2, §3, §4, §5, §6

[5] = tested on: A549 (human lung cancer cell); test: MTS cell proliferation test, A549 (Embodiment 8); type: cell-based
Description: as §1, §2, §3, §4, §5, §6

[6] = tested on: U937 (human lymphoma cell); test: MTS cell proliferation test, U937 (Embodiment 8); type: cell-based
Description: as §1, §2, §3, §4, §5, §6

[7] = tested on: H2452 cell (human mesothelicana cell); test: MTS cell proliferation test, H2452 (Embodiment 8); type: cell-based
Description: as §1, §2, §3, §4, §5, §6

[8] = tested on: LU65A (human lung cancer cell); test: MTS cell proliferation test, LU65A (Embodiment 8); type: cell-based
Description: as §1, §2, §3, §4, §5, §6

[9] = tested on: MKN-1 (human gastric cancer cell); test: MTS cell proliferation test, MKN-1 (Embodiment 8); type: cell-based
Description: as §1, §2, §3, §4, §5, §6

[10] = tested on: LU99 (human lung cancer cell); test: MTS cell proliferation test, LU99 (Embodiment 8); type: cell-based
Description: as §1, §2, §3, §4, §5, §6

[11] = tested on: RERF-LC-MA (human lung cancer cell); test: MTS cell proliferation test, RERF-LC-MA (Embodiment 8); type: cell-based
Description: as §1, §2, §3, §4, §5, §6

tumor cells = test: MTS cell proliferation test, all cancer cells of Embodiment 8; type: cell-based, human; conditions: summary of Table 2 in words
Description: as §1
as §2, with “cell. […]” for “cell.”
as §4
The inhibition rate (%) of the cell proliferation was obtained from the measured MTS value by the following formula. […]

[12] = tested on: H460 (human lung cancer cell); test: MTS cell proliferation test, H460 (Embodiment 8); type: cell-based
Description: as §1, §2, §3, §4, §5, §6

NC1CCCC12CCCC2N.O=C1[O][Pt][O]C1=O [S medicine, ((S,S,S) cis,cis-spiro[4,4]nonane-1,6-diamine)oxalatoplatinum(II) complex]
Inhibition rate of cell proliferation after 3 days from medicine addition (%) ([1]; HCT116, 5 μg/ml): ◯ (◯: 51~75%)
Inhibition rate of cell proliferation after 3 days from medicine addition (%) ([1]; HCT116, 10 μg/ml): ◯ (◯: 51~75%)
Inhibition rate of cell proliferation after 3 days from medicine addition (%) ([1]; HCT116, 20 μg/ml): ◯ (◯: 51~75%)
Inhibition rate of cell proliferation after 3 days from medicine addition (%) ([2]; 5 μg/ml): Δ (Δ: 26~50%)
Inhibition rate of cell proliferation after 3 days from medicine addition (%) ([2]; 10 μg/ml): ◯ (◯: 51~75%)
Inhibition rate of cell proliferation after 3 days from medicine addition (%) ([2]; 20 μg/ml): ⊚ (⊚: 76~100%)
Inhibition rate of cell proliferation after 3 days from medicine addition (%) ([3]; MKN-45, 5 μg/ml): ⊚ (⊚: 76~100%)
Inhibition rate of cell proliferation after 3 days from medicine addition (%) ([3]; MKN-45, 10 μg/ml): ⊚ (⊚: 76~100%)
Inhibition rate of cell proliferation after 3 days from medicine addition (%) ([3]; MKN-45, 20 μg/ml): ⊚ (⊚: 76~100%)
Inhibition rate of cell proliferation after 3 days from medicine addition (%) ([4]; HT-29, 5 μg/ml): Δ (Δ: 26~50%)
Inhibition rate of cell proliferation after 3 days from medicine addition (%) ([4]; HT-29, 10 μg/ml): Δ (Δ: 26~50%)
Inhibition rate of cell proliferation after 3 days from medicine addition (%) ([4]; HT-29, 20 μg/ml): ◯ (◯: 51~75%)
Inhibition rate of cell proliferation after 3 days from medicine addition (%) ([5]; A549, 5 μg/ml): X (X: 0~25%)
Inhibition rate of cell proliferation after 3 days from medicine addition (%) ([5]; A549, 10 μg/ml): ◯ (◯: 51~75%)
Inhibition rate of cell proliferation after 3 days from medicine addition (%) ([5]; A549, 20 μg/ml): ⊚ (⊚: 76~100%)
Inhibition rate of cell proliferation after 3 days from medicine addition (%) ([6]; U937, 5 μg/ml): ⊚ (⊚: 76~100%)
Inhibition rate of cell proliferation after 3 days from medicine addition (%) ([6]; U937, 10 μg/ml): ⊚ (⊚: 76~100%)
Inhibition rate of cell proliferation after 3 days from medicine addition (%) ([6]; U937, 20 μg/ml): ⊚ (⊚: 76~100%)
Inhibition rate of cell proliferation after 3 days from medicine addition (%) ([7]; H2452, 5 μg/ml): X (X: 0~25%)
Inhibition rate of cell proliferation after 3 days from medicine addition (%) ([7]; H2452, 10 μg/ml): Δ (Δ: 26~50%)
Inhibition rate of cell proliferation after 3 days from medicine addition (%) ([7]; H2452, 20 μg/ml): Δ (Δ: 26~50%)
Inhibition rate of cell proliferation after 3 days from medicine addition (%) ([8]; 5 μg/ml): ◯ (◯: 51~75%)
Inhibition rate of cell proliferation after 3 days from medicine addition (%) ([8]; 10 μg/ml): ⊚ (⊚: 76~100%)
Inhibition rate of cell proliferation after 3 days from medicine addition (%) ([8]; 20 μg/ml): ⊚ (⊚: 76~100%)
Inhibition rate of cell proliferation after 3 days from medicine addition (%) ([9]; MKN-1, 5 μg/ml): ◯ (◯: 51~75%)
Inhibition rate of cell proliferation after 3 days from medicine addition (%) ([9]; MKN-1, 10 μg/ml): ⊚ (⊚: 76~100%)
Inhibition rate of cell proliferation after 3 days from medicine addition (%) ([9]; MKN-1, 20 μg/ml): ⊚ (⊚: 76~100%)
Inhibition rate of cell proliferation after 3 days from medicine addition (%) ([10]; LU99, 5 μg/ml): ◯ (◯: 51~75%)
Inhibition rate of cell proliferation after 3 days from medicine addition (%) ([10]; LU99, 10 μg/ml): ⊚ (⊚: 76~100%)
Inhibition rate of cell proliferation after 3 days from medicine addition (%) ([10]; LU99, 20 μg/ml): ⊚ (⊚: 76~100%)
Inhibition rate of cell proliferation after 3 days from medicine addition (%) ([11]; 5 μg/ml): X (X: 0~25%)
Inhibition rate of cell proliferation after 3 days from medicine addition (%) ([11]; 10 μg/ml): Δ (Δ: 26~50%)
Inhibition rate of cell proliferation after 3 days from medicine addition (%) ([11]; 20 μg/ml): ◯ (◯: 51~75%)
medicine effect for the many tumor cells (tumor cells): high medicine effect compared with the oxaliplatin
Inhibition rate of cell proliferation after 3 days from medicine addition (%) ([12]; H460, 5 μg/ml): Δ (Δ: 26~50%)
Inhibition rate of cell proliferation after 3 days from medicine addition (%) ([12]; H460, 10 μg/ml): ◯ (◯: 51~75%)
Inhibition rate of cell proliferation after 3 days from medicine addition (%) ([12]; H460, 20 μg/ml): ⊚ (⊚: 76~100%)
